Tests used:
Estrogen receptor beta = Estrogen receptor beta (Homo sapiens, UniProt Q92731)
Description: Displacement of [3H]-E2 from human ER-beta incubated for 16 to 20 hrs by liquid scintillation counting analysis

NCI-H226 = test: Cytotoxicity against human NCI-H226 cells assessed as cell growth at 10^-8 M after 48 hrs by SRB assay; type: functional; details: NCI-H226, 48 h, read-out: Activity
[1] = Cytotoxicity against human SF539 cells assessed as cell growth at 10^-4 M after 48 hrs by SRB assay; type: functional; details: SF-539, 48 h, read-out: Activity
M14 [2] = test: Cytotoxicity against human M14 cells assessed as cell growth at 10^-7 M after 48 hrs by SRB assay; type: functional; details: M14, 48 h, read-out: Activity
NCI-H23 = test: Cytotoxicity against human NCI-H23 cells assessed as cell growth at 10^-4 M after 48 hrs by SRB assay; type: functional; details: NCI-H23, 48 h, read-out: Activity
CCRF-CEM = test: Cytotoxicity against human CCRF-CEM cells assessed as cell growth at 10^-8 M after 48 hrs by SRB assay; type: functional; details: read-out: Activity
[3] = Cytotoxicity against human SNB75 cells assessed as cell growth at 10^-4 M after 48 hrs by SRB assay; type: functional; details: SNB-75, 48 h, read-out: Activity
[4] = Cytotoxicity against human RXF393 cells assessed as cell growth at 10^-5 M after 48 hrs by SRB assay; type: functional; details: RXF 393, 48 h, read-out: Activity
K562 = test: Cytotoxicity against human K562 cells assessed as cell growth at 10^-5 M after 48 hrs by SRB assay; type: functional; details: K562, 48 h, read-out: Activity
[5] = Cytotoxicity against human COLO205 cells assessed as cell growth at 10^-4 M after 48 hrs by SRB assay; type: functional; details: COLO 205, 48 h, read-out: Activity
MCF7 = test: Cytotoxicity against human MCF7 cells assessed as cell growth at 10^-5 M after 48 hrs by SRB assay; type: functional; details: MCF7, 48 h, read-out: Activity
NCI-H322M [6] = test: Cytotoxicity against human NCI-H322M cells assessed as cell growth at 10^-5 M after 48 hrs by SRB assay; type: functional; details: read-out: Activity
NCI-H460 = test: Cytotoxicity against human NCI-H460 cells assessed as cell growth at 10^-7 M after 48 hrs by SRB assay; type: functional; details: NCI-H460, 48 h, read-out: Activity
SR = test: Cytotoxicity against human SR cells assessed as cell growth at 10^-6 M after 48 hrs by SRB assay; type: functional; details: read-out: Activity
[7] = Cytotoxicity against human SF295 cells assessed as cell growth at 10^-4 M after 48 hrs by SRB assay; type: functional; details: SF-295, 48 h, read-out: Activity
[8] = Cytotoxicity against human TK10 cells assessed as cell growth at 10^-4 M after 48 hrs by SRB assay; type: functional; details: TK-10, 48 h, read-out: Activity
SK-MEL-28 [9] = test: Cytotoxicity against human SK-MEL-28 cells assessed as cell growth at 10^-5 M after 48 hrs by SRB assay; type: functional; details: SK-MEL-28, 48 h, read-out: Activity
[10] = Cytotoxicity against human HCC2998 cells assessed as cell growth at 10^-5 M after 48 hrs by SRB assay; type: functional; details: HCC 2998, 48 h, read-out: Activity
[11] = Cytotoxicity against human OVCAR5 cells assessed as cell growth at 10^-5 M after 48 hrs by SRB assay; type: functional; details: OVCAR-5, 48 h, read-out: Activity
SK-MEL-2 = test: Cytotoxicity against human SK-MEL-2 cells assessed as cell growth at 5 uM after 48 hrs by SRB assay; type: functional; details: SK-MEL-2, 48 h, read-out: Activity
NCI-H322M [12] = test: Cytotoxicity against human NCI-H322M cells assessed as cell growth at 0.5 uM after 48 hrs by SRB assay; type: functional; details: read-out: Activity
SN12C = test: Cytotoxicity against human SN12C cells assessed as cell growth at 50 uM after 48 hrs by SRB assay; type: functional; details: read-out: Activity
786-0 = test: Cytotoxicity against human 786-0 cells assessed as cell growth at 5 nM after 48 hrs by SRB assay; type: functional; details: 786-0, 48 h, read-out: Activity
MDA-MB-231 = test: Cytotoxicity against human MDA-MB-231 cells assessed as cell growth at 5 nM after 48 hrs by SRB assay; type: functional; details: MDA-MB-231, 48 h, read-out: Activity
[13] = Cytotoxicity against human HCT116 cells assessed as cell growth at 50 uM after 48 hrs by SRB assay; type: functional; details: HCT-116, 48 h, read-out: Activity
[14] = Cytotoxicity against human DU145 cells assessed as cell growth at 50 nM after 48 hrs by SRB assay; type: functional; details: DU-145, 48 h, read-out: Activity
[15] = Cytotoxicity against human OVCAR5 cells assessed as cell growth at 5 uM after 48 hrs by SRB assay; type: functional; details: OVCAR-5, 48 h, read-out: Activity
[16] = Cytotoxicity against human TK10 cells assessed as cell growth at 50 uM after 48 hrs by SRB assay; type: functional; details: TK-10, 48 h, read-out: Activity
Malme-3M = test: Cytotoxicity against human MALME-3M cells assessed as cell growth at 50 nM after 48 hrs by SRB assay; type: functional; details: read-out: Activity
[17] = Cytotoxicity against human HOP92 cells assessed as cell growth at 50 uM after 48 hrs by SRB assay; type: functional; details: HOP-92, 48 h, read-out: Activity
EKVX [18] = test: Cytotoxicity against human EKVX cells assessed as cell growth at 50 uM after 48 hrs by SRB assay; type: functional; details: read-out: Activity
[19] = Cytotoxicity against human UACC62 cells assessed as cell growth at 50 uM after 48 hrs by SRB assay; type: functional; details: UACC-62, 48 h, read-out: Activity
HT-29 = test: Cytotoxicity against human HT-29 cells assessed as cell growth at 50 uM after 48 hrs by SRB assay; type: functional; details: HT-29, 48 h, read-out: Activity
[20] = Cytotoxicity against human SW620 cells assessed as cell growth at 5 nM after 48 hrs by SRB assay; type: functional; details: SW-620, 48 h, read-out: Activity
SK-MEL-28 [21] = test: Cytotoxicity against human SK-MEL-28 cells assessed as cell growth at 5 nM after 48 hrs by SRB assay; type: functional; details: SK-MEL-28, 48 h, read-out: Activity
[22] = Cytotoxicity against human SNB75 cells assessed as cell growth at 50 uM after 48 hrs by SRB assay; type: functional; details: SNB-75, 48 h, read-out: Activity
[23] = Cytotoxicity against human TK10 cells assessed as cell growth at 5 uM after 48 hrs by SRB assay; type: functional; details: TK-10, 48 h, read-out: Activity
[24] = Cytotoxicity against human HCT15 cells assessed as cell growth at 5 uM after 48 hrs by SRB assay; type: functional; details: HCT-15, 48 h, read-out: Activity
EKVX [25] = test: Cytotoxicity against human EKVX cells assessed as cell growth at 50 nM after 48 hrs by SRB assay; type: functional; details: read-out: Activity
[26] = Cytotoxicity against human DU145 cells assessed as cell growth at 5 nM after 48 hrs by SRB assay; type: functional; details: DU-145, 48 h, read-out: Activity
M14 [27] = test: Cytotoxicity against human M14 cells assessed as cell growth at 50 nM after 48 hrs by SRB assay; type: functional; details: M14, 48 h, read-out: Activity
[28] = Cytotoxicity against human MOLT4 cells assessed as cell growth at 50 uM after 48 hrs by SRB assay; type: functional; details: MOLT-4, 48 h, read-out: Activity

Estrogen receptor beta, sequence (Q92731 whole entry): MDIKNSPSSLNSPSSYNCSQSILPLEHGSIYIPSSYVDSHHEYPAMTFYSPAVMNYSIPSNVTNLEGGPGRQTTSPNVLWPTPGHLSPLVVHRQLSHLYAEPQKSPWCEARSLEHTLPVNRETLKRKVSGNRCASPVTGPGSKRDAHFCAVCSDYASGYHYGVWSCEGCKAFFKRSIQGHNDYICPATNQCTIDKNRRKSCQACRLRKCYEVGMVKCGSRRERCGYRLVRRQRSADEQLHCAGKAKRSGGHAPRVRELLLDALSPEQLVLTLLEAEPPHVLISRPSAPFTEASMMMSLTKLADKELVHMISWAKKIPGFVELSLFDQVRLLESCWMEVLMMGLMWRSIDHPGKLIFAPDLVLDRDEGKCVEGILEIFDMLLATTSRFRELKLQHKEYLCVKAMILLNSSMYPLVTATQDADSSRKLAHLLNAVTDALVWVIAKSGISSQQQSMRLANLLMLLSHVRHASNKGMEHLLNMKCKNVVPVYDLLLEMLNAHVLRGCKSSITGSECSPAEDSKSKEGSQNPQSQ

C/C(=C(/c1ccc(O)cc1)c1ccc(OCCN2CCCC2)cc1)c1ccccc1
IC50 (Estrogen receptor beta): 40 nM
growth at 0.01 µM (NCI-H226): 91%
growth at 100 µM [1]: -86%
growth at 0.1 µM (M14 [2]): 93%
growth at 100 µM (NCI-H23): -83%
growth at 0.01 µM (CCRF-CEM): 110%
growth at 100 µM [3]: -94%
growth at 10 µM [4]: -37%
growth at 10 µM (K562): -38%
growth at 100 µM [5]: -82%
growth at 10 µM (MCF7): -47%
growth at 10 µM (NCI-H322M [6]): 34%
growth at 0.1 µM (NCI-H460): 106%
growth at 1 µM (SR): 80%
growth at 100 µM [7]: -95%
growth at 100 µM [8]: -100%
growth at 10 µM (SK-MEL-28 [9]): -74%
growth at 10 µM [10]: -25%
growth at 10 µM [11]: 46%

CCCCCCCCCC(=O)Oc1ccc(/C(=C(/C)c2ccccc2)c2ccc(OCCN3CCCC3)cc2)cc1
growth at 5 µM (SK-MEL-2): 100%
growth at 0.5 µM (NCI-H322M [12]): 73%
growth at 50 µM (SN12C): -76%
growth at 0.005 µM (786-0): 102%
growth at 0.005 µM (MDA-MB-231): 99%
growth at 50 µM [13]: -87%
growth at 0.05 µM [14]: 98%
growth at 5 µM [15]: 91%
growth at 50 µM [16]: -87%
growth at 0.05 µM (Malme-3M): 98%
growth at 50 µM [17]: -75%
growth at 50 µM (EKVX [18]): -97%
growth at 50 µM [19]: -90%
growth at 50 µM (HT-29): -89%
growth at 0.005 µM [20]: 96%
growth at 0.005 µM (SK-MEL-28 [21]): 104%
growth at 50 µM [22]: -90%
growth at 5 µM [23]: 95%
growth at 5 µM [24]: 72%
growth at 0.05 µM (EKVX [25]): 90%
growth at 0.005 µM [26]: 102%
growth at 0.05 µM (M14 [27]): 94%
growth at 50 µM [28]: -53%
